Assays:
[1] = species: Homo sapiens; assay: Selectivity ratio of Ki for human CB1 receptor to Ki for human CB2 receptor
[2] = target: Cannabinoid receptor 1 (Homo sapiens, UniProt P21554); assay: Binding affinity to human CB1 receptor transfected in HEK293 cells; assay type: cell-based
[3] = target: Cannabinoid receptor 2 (Homo sapiens, UniProt P34972); assay: Binding affinity to human CB2 receptor transfected in HEK293 cells; assay type: cell-based
Sequence of Cannabinoid receptor 2 (P34972 whole entry): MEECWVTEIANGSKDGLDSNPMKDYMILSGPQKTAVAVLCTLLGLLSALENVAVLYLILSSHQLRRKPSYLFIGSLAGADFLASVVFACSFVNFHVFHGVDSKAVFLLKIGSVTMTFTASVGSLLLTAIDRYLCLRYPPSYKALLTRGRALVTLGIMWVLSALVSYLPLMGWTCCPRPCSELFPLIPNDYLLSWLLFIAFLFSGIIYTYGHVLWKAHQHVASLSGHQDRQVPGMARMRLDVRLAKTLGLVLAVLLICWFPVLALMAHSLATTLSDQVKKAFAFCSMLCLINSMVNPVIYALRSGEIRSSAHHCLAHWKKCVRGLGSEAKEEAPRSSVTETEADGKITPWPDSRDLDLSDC

Sequence of Cannabinoid receptor 1 (P21554 whole entry): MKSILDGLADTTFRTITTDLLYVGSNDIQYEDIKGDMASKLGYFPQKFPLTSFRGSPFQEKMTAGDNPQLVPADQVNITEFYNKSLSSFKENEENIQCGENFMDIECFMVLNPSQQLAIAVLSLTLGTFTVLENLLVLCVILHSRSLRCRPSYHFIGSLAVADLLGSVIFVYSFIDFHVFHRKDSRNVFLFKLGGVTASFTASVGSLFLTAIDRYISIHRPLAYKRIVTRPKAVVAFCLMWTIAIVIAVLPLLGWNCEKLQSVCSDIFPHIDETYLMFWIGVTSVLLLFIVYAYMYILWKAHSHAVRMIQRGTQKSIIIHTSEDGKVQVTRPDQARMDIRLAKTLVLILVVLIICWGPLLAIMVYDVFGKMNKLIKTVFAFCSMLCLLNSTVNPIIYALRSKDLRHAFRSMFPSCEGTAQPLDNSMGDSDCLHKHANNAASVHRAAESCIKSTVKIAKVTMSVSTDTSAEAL

SMILES | Ratio Ki [1] | Ki [2] | Ki [3]
O=C(c1ccccc1)c1cc(O)c(-c2cc(Cl)cc(Cl)c2)c(O)c1 | 9.2 |  | 
CC1=CC[C@@H]2[C@@H](C1)c1c(O)cc(C(C)(C)c3ccccc3)cc1OC2(C)C | 13.5 |  | 
CC(C)(c1ccccc1)c1cc(O)c(-c2cc(Cl)cc(Cl)c2)c(O)c1 | 87.5 | 93.7 nM | 1.07 nM
COc1cc(C(O)c2ccccc2)cc(OC)c1-c1cc(Cl)cc(Cl)c1 (centres undefined) | 602 | > 1000 nM | 
COc1cc(C(=O)c2ccccc2)cc(O)c1-c1cc(Cl)cc(Cl)c1 | 210 | > 1000 nM | 
